The subject of the assay is adenylate cyclase. Description: stimulation of adenylate cyclase activity in purified fibroblast (3T3 F442A) cell membranes, AMPc measured by radioimmunoassay. As to conditions: at 0.05 g/l, 37° C., 3T3 F442A fibroblast membranes; basal activity without effector = 100%. The format is biochemical, mouse. The protocol:
Cell membranes are initially obtained by culturing to confluence fibroblasts of the 3T3 F442A line commercially available from Flow Laboratories.
These fibroblast cell membranes which constitute an enzyme source, are incubated in a reaction medium in the presence of ATP at 37° C. for a predefined length of time.
The resulting AMPc is measured by radioimmunoassay. Taking the basal activity, i.e. activity without an effector, as being 100%, it is possible to determine the influence of an effector on the enzyme system.
Cell membranes are purified from the fibroblast in culture.
In this context, it should be observed that purification of cell membranes releases numerous enzymes into the assay medium. Two of these enzymes are undesirable in implementing the test. They comprise firstly Na^+, K^+ ATPase which transform ATP into adenosine diphosphate, and secondly phosphodiesterase 3',5'-AMPc which degrades cyclic AMP into AMP. Thus, in order to obtain reliable results from the test, it is essential to inhibit those two enzymes. The first is inhibited by means of ouabain, and the second by means of theophylline.
The reaction medium is thus constituted by:
50 μl of a 5 mM solution of […] (ATP) as substrate;
100 μl of a 20 mM solution of ouabain as an inhibitor of ATPase;
100 μl of a 20 mM solution of theophylline as an inhibitor of phosphodiesterase; and […]

On to `C=C[C@@]1(C)CC(=O)[C@]2(O)[C@@]3(C)[C@@H](O)CCC(C)(C)[C@@H]3[C@H](O)[C@H](OC(C)=O)[C@@]2(C)O1` [forskoline], for which the “% activity (adenylate cyclase; basal activity = 100)” value was found to be 225%.

These data come from patent publication US5709864A, “Cosmetic or pharmaceutical and particularly dermatological, composition containing an extract of tephrosia, particularly Tephrosia purpurea” (priority 1993, dated 1998).
